According to paper PMC5118228 (EJNMMI Research, 2016):

What was measured:
nontumor-bearing mice = assay type: in vivo; settings: control, 4 × 0.3 nmol unlabeled DOTATATE; nontumor-bearing mice; n=8
Procedure: MTD was defined as the highest dose given to the animals allowing 100% survival with no significant weight loss >15% throughout the experiment. Nontumor-bearing mice were randomly divided into seven cohorts used to evaluate MTD, six treatments and one control (n = 8/cohort); see Table 1. […] Control mice received DOTATATE (4 × 0.3 nmol) on four consecutive days. The animals were followed for 90 days. Serum was analyzed for the biomarker neutrophil gelatinase-associated lipocalin (NGAL) using ELISA (R&D Systems, 450 nm).

patients = settings: in vivo; cited from earlier work
Text: Radiolabeled somatostatin analogs are known to accumulate in the renal proximal tubules, due to their net charge, electrostatic forces, and charge distribution from metal-chelation. This can result in a high absorbed dose and subsequent renal dysfunction.

| SMILES | survival at 90 days post-treatment (nontumor-bearing mice) | reduction of renal uptake by co-infusion of L-lysine/L-arginine (patients) |
| --- | --- | --- |
| C[C@@H](O)[C@H](NC(=O)[C@@H]1CSSC[C@H](NC(=O)[C@@H](Cc2ccccc2)NC(=O)CN2CCN(CC(=O)O)CCN(CC(=O)O)CCN(CC(=O)O)CC2)C(=O)N[C@@H](Cc2ccc(O)cc2)C(=O)N[C@H](Cc2c[nH]c3ccccc23)C(=O)N[C@@H](CCCCN)C(=O)N[C@@H]([C@@H](C)O)C(=O)N1)C(=O)O [DOTATATE] | all control animals survived | – |
| C[C@@H](O)[C@H](NC(=O)[C@@H]1CSSC[C@H](NC(=O)[C@@H](Cc2ccccc2)NC(=O)CN2CCN(CC(=O)[O-])CCN(CC(=O)[O-])CCN(CC(=O)[O-])CC2)C(=O)N[C@@H](Cc2ccc(O)cc2)C(=O)N[C@H](Cc2c[nH]c3ccccc23)C(=O)N[C@@H](CCCCN)C(=O)N[C@@H]([C@@H](C)O)C(=O)N1)C(=O)O.[177Lu+3] [^177Lu-DOTATATE, ^177Lu-[DOTA^0,Tyr^3]octreotate] | – | 30–50% |
